From US20260083865A1, “PROSTATE SPECIFIC MEMBRANE ANTIGEN (PSMA) LIGANDS AND USE THEREOF” (priority 2022, published 2026)
Numbered stars: 1 amine (or outer) side, 2 acyl side, 3 side chain; on linkers, the order of the positions; unused ones are H or OH. Bridge positions count the residues as written; N and C are the ends. Square brackets hold non-standard residues; d marks the D form. Peptide text beside a SMILES is read from it. * marks the point of attachment. TtdsdLys(DOTA)NH2 = NC(=O)[C@@H](CCCCNC(=O)CN1CCN(CC(=O)O)CCN(CC(=O)O)CCN(CC(=O)O)CC1)NC(=O)CCC(=O)NCCCOCCOCCOCCCN*; X11 = O=C(CCCC[C@@H]1SC[C@@H]2NC(=O)N[C@@H]21)NCCCOCCOCCOCCCNC(=O)CCC(=O)NCCCOCCOCCOCCCN*; DOTA = O=C(O)CN1CCN(CC(=O)O)CCN(CC(=O)*)CCN(CC(=O)O)CC1; Phe(3-Cl) = N[C@@H](Cc1cccc(Cl)c1)C(=O)O; Phe(4-Cl) = N[C@@H](Cc1ccc(Cl)cc1)C(=O)O; X1 = O=C(CC1CCN([*:1])CC1)[*:2]; Suc = O=C(CCC(=O)[*:2])[*:1]; Tle = CC(C)(C)[C@H](N)C(=O)O; Pyridin(2-yl) = c1ccc(*)nc1; 4Amb = NCc1ccc(C(=O)O)cc1; Nle = CCCC[C@H](N)C(=O)O; Orn = NCCC[C@H](N)C(=O)O; Hexanoyl = CCCCCC(=O)*; Aib = CC(C)(N)C(=O)O; CO = O=C([*:1])[*:2]; CH2 = C([*:1])[*:2]; βAla = NCCC(=O)O; NHBu = CCCCN*

Experiments:
[1] = target: T1, PSMA-expressing C4-2 cells (Homo sapiens, UniProt Q04609); assay: FACS binding assay (competition with 50 nM PSM-0183); conditions: FACS binding, C4-2 cells, category; read-out: pIC50 [C4-2] CAT (converted)
T1 construct: PSMA-expressing C4-2 cells (ATCC, Cat. No. CRL-3314) were cultured in RPMI-1640; host or cells: C4-2 cells
T1 sequence (Q04609 whole entry): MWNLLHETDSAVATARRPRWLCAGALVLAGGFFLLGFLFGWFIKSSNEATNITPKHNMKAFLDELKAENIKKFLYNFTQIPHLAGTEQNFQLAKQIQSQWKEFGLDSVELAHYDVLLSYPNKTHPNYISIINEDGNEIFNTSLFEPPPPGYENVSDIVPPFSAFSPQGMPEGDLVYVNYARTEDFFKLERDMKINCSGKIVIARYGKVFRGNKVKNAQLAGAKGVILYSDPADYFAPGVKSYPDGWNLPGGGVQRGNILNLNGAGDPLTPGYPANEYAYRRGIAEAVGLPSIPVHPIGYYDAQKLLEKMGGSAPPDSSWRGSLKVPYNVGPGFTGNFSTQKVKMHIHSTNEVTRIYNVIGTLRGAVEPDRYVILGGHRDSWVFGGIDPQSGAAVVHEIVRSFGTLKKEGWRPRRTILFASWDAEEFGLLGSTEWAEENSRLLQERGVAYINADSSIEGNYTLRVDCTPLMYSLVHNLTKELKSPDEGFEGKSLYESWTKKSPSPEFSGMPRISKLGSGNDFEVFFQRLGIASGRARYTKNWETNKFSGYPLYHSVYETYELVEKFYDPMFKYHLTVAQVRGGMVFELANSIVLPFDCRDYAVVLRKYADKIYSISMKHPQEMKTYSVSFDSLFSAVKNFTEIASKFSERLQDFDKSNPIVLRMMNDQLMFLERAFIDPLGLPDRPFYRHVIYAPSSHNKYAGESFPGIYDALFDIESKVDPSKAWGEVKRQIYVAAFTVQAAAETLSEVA
Method in brief: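 Competition format: fluorescent tracer PSM-0183 (50 nM) displaced from PSMA on C4-2 cells by a test compound titration over 1 h at 4 °C. Bound tracer was quantified as flow-cytometric AF488 median fluorescence after washing. Four-parameter logistic fits of MFI data gave IC50 and pIC50.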

[2] = target: T2, Fc-fusion protein of human PSMA (hPSMA-Fc) (Homo sapiens, UniProt Q04609); assay: Surface plasmon resonance assay (Biacore T200, single cycle kinetic); type: binding; conditions: PSMA SPR assay, category; read-out: pKD CAT (converted)
T2 construct: purchased Acro Biosystems PSA-H5264
T2 sequence (Q04609 44-750 limits assumed): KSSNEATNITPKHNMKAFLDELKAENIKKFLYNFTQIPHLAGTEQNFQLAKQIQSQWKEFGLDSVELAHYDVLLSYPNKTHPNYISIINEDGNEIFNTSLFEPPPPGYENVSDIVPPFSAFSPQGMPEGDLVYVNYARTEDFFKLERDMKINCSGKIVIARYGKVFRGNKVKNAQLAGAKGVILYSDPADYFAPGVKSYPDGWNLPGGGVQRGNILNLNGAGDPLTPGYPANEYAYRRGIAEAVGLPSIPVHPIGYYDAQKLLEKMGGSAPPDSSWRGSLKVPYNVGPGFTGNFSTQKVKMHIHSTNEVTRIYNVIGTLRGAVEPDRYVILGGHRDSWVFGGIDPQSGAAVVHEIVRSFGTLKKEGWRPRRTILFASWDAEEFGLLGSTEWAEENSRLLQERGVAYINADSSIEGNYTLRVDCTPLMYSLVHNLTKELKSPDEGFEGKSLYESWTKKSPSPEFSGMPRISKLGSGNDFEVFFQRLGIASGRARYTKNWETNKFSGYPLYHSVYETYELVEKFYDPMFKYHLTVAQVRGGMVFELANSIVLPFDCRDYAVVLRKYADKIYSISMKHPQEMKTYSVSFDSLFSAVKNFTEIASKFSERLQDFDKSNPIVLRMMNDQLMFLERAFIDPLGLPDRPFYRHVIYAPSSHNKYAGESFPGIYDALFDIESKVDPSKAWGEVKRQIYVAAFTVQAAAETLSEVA
Method in brief: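 KD, expressed as pKD, came from 1:1 Langmuir fits of reference- and buffer-blank-subtracted SPR data. The runs were single-cycle kinetics at 25° C in HBST/0.1% DMSO over human PSMA-Fc, captured to ~1000 RU on a peptide-coated CM5 surface and regenerated with 10 mM glycine pH 1.5.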

IC50 [1] | Kd [2] | Structure (SMILES)
< 200 nM | < 12.6 nM | CC(=O)N[C@H](C(=O)NC(C)(C)C(=O)N[C@@H](Cc1ccccc1)C(=O)N[C@H]1CSCSC[C@@H](C(=O)N[C@H](C(=O)N[C@H](C(=O)N[C@@H](CC(=O)O)C(N)=O)[C@@H](C)O)C(C)(C)C)NC(=O)[C@H](CC(N)=O)NC(=O)[C@H](C)NC(=O)[C@H](CCCNC(=N)N)NC(=O)[C@H](CCCCN)NC1=O)[C@@H](C)O [PSM-0567, Ac-Thr-Aib-Phe-[Smc-Lys-Arg-Ala-Asn-Cys]-Tle-Thr-Asp-NH2] (Ac-T[Aib]FCKRANC[Tle]TD-NH2; linker 4-9 via CH2)
< 200 nM | < 12.6 nM | CC(=O)NC(=N)NCCC[C@@H]1NC(=O)[C@H](CCCCN)NC(=O)[C@@H](NC(=O)[C@H](Cc2ccc(Cl)cc2)NC(=O)C(C)(C)NC(=O)[C@@H](NC(C)=O)[C@@H](C)O)CSSC[C@@H](C(=O)N[C@H](C(=O)N[C@H](C(N)=O)[C@@H](C)O)C(C)(C)C)NC(=O)[C@H](CC(N)=O)NC(=O)C(C)(C)NC1=O [PSM-0569, Ac-Thr-Aib-Pcf-[Cys-Lys-Arg(Ac)-Aib-Asn-Cys]-Tle-Thr-NH2] (Ac-T[Aib][Phe(4-Cl)]CKR(Ac)[Aib]NC[Tle]T-NH2; disulfide 4-9)
< 200 nM | 12.6 to 126 nM | CCCC[C@@H]1NC(=O)[C@@H](NC(=O)[C@H](Cc2ccc(Cl)cc2)NC(=O)C(C)(C)NC(=O)[C@@H](NC(C)=O)[C@@H](C)O)CSSC[C@@H](C(=O)N[C@H](C(=O)N[C@H](C(N)=O)[C@@H](C)O)C(C)(C)C)NC(=O)[C@H](CC(N)=O)NC(=O)C(C)(C)NC(=O)[C@H](CCCNC(=N)NC(C)=O)NC1=O [PSM-0570, Ac-Thr-Aib-Pcf-[Cys-Nle-Arg(Ac)-Aib-Asn-Cys]-Tle-Thr-NH2] (Ac-T[Aib][Phe(4-Cl)]C[Nle]R(Ac)[Aib]NC[Tle]T-NH2; disulfide 4-9)
< 200 nM | 12.6 to 126 nM | CC(C)(NC(=O)c1ccc(CNC(=O)CN2CCN(CC(=O)O)CCN(CC(=O)O)CCN(CC(=O)O)CC2)cc1)C(=O)N[C@@H](Cc1ccccc1)C(=O)N[C@H]1CSSC[C@@H](C(=O)N[C@H](C(=O)NCCC(N)=O)C(C)(C)C)NC(=O)[C@H](CC(N)=O)NC(=O)C(C)(C)NC(=O)[C@H](CCCNC(=N)N)NC(=O)[C@H](CCCCN)NC1=O [PSM-0574, DOTA-Pamb-Aib-Phe-[Cys-Lys-Arg-Aib-Asn-Cys]-Tle-Bal-NH2] ({DOTA-4Amb}-[Aib]FCKR[Aib]NC[Tle][βAla]-NH2; disulfide 3-8)

More lines, now with the values behind:

Structure (SMILES) | IC50 [1] | Kd [2]
CCCCCC(=O)N[C@H](C(=O)N[C@@H](C)C(=O)N[C@@H](Cc1ccccc1)C(=O)N[C@H]1CSSC[C@@H](C(=O)N[C@H](C(=O)N[C@H](C(=O)N[C@@H](CC(=O)O)C(=O)NCCCOCCOCCOCCCNC(=O)CCC(=O)N[C@H](CCCCNC(=O)CN2CCN(CC(=O)O)CCN(CC(=O)O)CCN(CC(=O)O)CC2)C(N)=O)[C@@H](C)O)C(C)(C)C)NC(=O)[C@H](CC(N)=O)NC(=O)[C@H](C)NC(=O)[C@H](CCCNC(=N)N)NC(=O)[C@H](CCCCN)NC1=O)[C@@H](C)O [PSM-0568, Hex-Thr-Ala-Phe-[Cys-Lys-Arg-Ala-Asn-Cys]-Tle-Thr-Asp-Ttds-lys(DOTA)-NH2] (Hexanoyl-TAFCKRANC[Tle]TD-{TtdsdLys(DOTA)NH2}; disulfide 4-9) | < 200 nM | 12.6 to 126 nM
CCCCNC(=O)N[C@H](C(=O)NC(C)(C)C(=O)N[C@@H](Cc1cccc(Cl)c1)C(=O)N[C@H]1CSSC[C@@H](C(=O)N[C@H](C(=O)N[C@H](C(=O)N2CCC(CC(=O)N[C@H](CCCCNC(=O)CN3CCN(CC(=O)O)CCN(CC(=O)O)CCN(CC(=O)O)CC3)C(N)=O)CC2)[C@@H](C)O)C(C)(C)C)NC(=O)[C@H](CC(N)=O)NC(=O)C(C)(C)NC(=O)[C@H](CCCNc2ccccn2)NC(=O)[C@H](CCCCN)NC1=O)[C@@H](C)O [PSM-0571, nBuCAyl-Thr-Aib-Mcf-[Cys-Lys-Opy-Aib-Asn-Cys]-Tle-Thr-Cmp-lys(DOTA)-NH2] ({NHBu-CO}-T[Aib][Phe(3-Cl)]CK[Orn](Pyridin(2-yl))[Aib]NC[Tle]T[X1][dK](DOTA)-NH2; disulfide 4-9) | 200 to 1260 nM | 12.6 to 126 nM
C[C@@H](O)[C@H](NC(=O)[C@@H](NC(=O)[C@@H]1CSSC[C@H](NC(=O)[C@H](Cc2ccc(Cl)cc2)NC(=O)C(C)(C)NC(=O)[C@@H](NC(=O)CCC(=O)NCCCOCCOCCOCCCNC(=O)CCC(=O)NCCCOCCOCCOCCCNC(=O)CCCC[C@@H]2SC[C@@H]3NC(=O)N[C@@H]32)[C@@H](C)O)C(=O)N[C@@H](CCCCN)C(=O)N[C@@H](CCCNC(=N)N)C(=O)NC(C)(C)C(=O)N[C@@H](CC(N)=O)C(=O)N1)C(C)(C)C)C(N)=O [PSM-0575, Bio-Ttds-Ttds-Thr-Aib-Pcf-[Cys-Lys-Arg-Aib-Asn-Cys]-Tle-Thr-NH2] ({X11-Suc}-T[Aib][Phe(4-Cl)]CKR[Aib]NC[Tle]T-NH2; disulfide 4-9) | < 200 nM | < 12.6 nM
CCCCCC(=O)N[C@H](C(=O)NC(C)(C)C(=O)N[C@@H](Cc1ccccc1)C(=O)N[C@H]1CSSC[C@@H](C(=O)N[C@H](C(=O)N[C@H](C(=O)NCCCOCCOCCOCCCNC(=O)CCC(=O)N[C@H](CCCCNC(=O)CN2CCN(CC(=O)O)CCN(CC(=O)O)CCN(CC(=O)O)CC2)C(N)=O)[C@@H](C)O)C(C)(C)C)NC(=O)[C@H](CC(N)=O)NC(=O)C(C)(C)NC(=O)[C@H](CCCNC(=N)N)NC(=O)[C@H](CCCCN)NC1=O)[C@@H](C)O [PSM-0576, Hex-Thr-Aib-Phe-[Cys-Lys-Arg-Aib-Asn-Cys]-Tle-Thr-Ttds-lys(DOTA)-NH2] (Hexanoyl-T[Aib]FCKR[Aib]NC[Tle]T-{TtdsdLys(DOTA)NH2}; disulfide 4-9) | < 200 nM | < 12.6 nM
